Experimental data: the supplement of paper PMC10331698
± gives the standard deviation of the averaged measurements.

Key:
Experiment in all cases: level (log10 ratio to DMSO vehicle control); higher = higher biomarker level / cell amount than vehicle control
[1] = compound: CCN(CCO)S(=O)(=O)C(F)(F)C(F)(F)C(F)(F)C(F)(F)C(F)(F)C(F)(F)C(F)(F)C(F)(F)F [N-Ethyl-N-(2-hydroxyethyl)perfluorooctanesulfonamide]; conditions: in DMSO
Experimental: (§1)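 BioMAP Diversity Plus panel of 12 human primary cell co-culture systems (3C, 4H, LPS, SAg, BT, BF4T, BE3C, CASM3C, HDF3CGF, KF3CT, MyoF, Mphg). Compounds were added 1 h before stimulation and left for 24 h (MyoF 48 h; BT 72 h for soluble read-outs or 6 d for IgG). Biomarkers were read by ELISA, cytotoxicity by SRB, PBMC viability and proliferation by Alamar Blue. Each well value was divided by the mean of 8 DMSO control wells on the same plate and log10 transformed; duplicate blinded samples were tested at 4 concentrations.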

[2] = compound: O=C(O)C(F)(F)OC(F)(F)C(F)(F)OC(F)(F)C(=O)O [Perfluoro-3,6-dioxaoctane-1,8-dioic acid]; conditions: in DMSO
Experimental: as §1

[3] = compound: O=C(O)C(F)(F)C(F)(F)C(F)(F)F [Perfluorobutanoic acid]; conditions: in DMSO
Experimental: as §1

[4] = compound: FC(F)(F)C(F)(F)C(F)(F)C(F)(F)C(F)(F)C(F)(F)I [Perfluoro-1-iodohexane]; conditions: in DMSO
Experimental: as §1

[5] = compound: OCCCC(F)(F)C(F)(F)C(F)(F)C(F)(F)C(F)(F)C(F)(F)C(F)(F)F [7:3 Fluorotelomer alcohol]; conditions: 6700 nM; in DMSO
Experimental: as §1

[6] = compound: FC(F)(F)C(F)(F)C(F)(F)C(F)(F)C(F)(F)CCI [1-Iodo-1H,1H,2H,2H-perfluoroheptane]; conditions: in DMSO
Experimental: as §1

[7] = compound: O=C(O)C(F)(F)C(F)(F)C(F)(F)C(F)(F)C(F)(F)C(F)(F)F [Perfluoroheptanoic acid]; conditions: in DMSO
Experimental: as §1

| Test System | level (log10) ([1]; 6700 nM) | level (log10) ([1]; 20000 nM) | level (log10) ([2]; 6700 nM) | level (log10) ([2]; 20000 nM) | level (log10) ([2]; 60000 nM) | level (log10) ([3]; 6700 nM) | level (log10) ([3]; 20000 nM) | level (log10) ([3]; 60000 nM) | level (log10) ([4]; 6700 nM) | level (log10) ([4]; 20000 nM) | level (log10) ([4]; 60000 nM) | level (log10) [5] | level (log10) ([6]; 6700 nM) | level (log10) ([6]; 20000 nM) | level (log10) ([6]; 60000 nM) | level (log10) ([7]; 6700 nM) | level (log10) ([7]; 20000 nM) | level (log10) ([7]; 60000 nM) |
| --- | --- | --- | --- | --- | --- | --- | --- | --- | --- | --- | --- | --- | --- | --- | --- | --- | --- | --- |
| BT:B cell Proliferation | 0.0165 ± 0.005 | -0.0405 ± 0.059 | 0.0095 ± 0.016 | -0.009 ± 0.023 | 0.0035 ± 0.0035 | 0.0085 ± 0.00071 | -0.029 ± 0.014 | 0.002 ± 0.0042 | -0.011 ± 0.054 | -0.008 ± 0.011 | -0.0135 ± 0.025 | -0.011 ± 0.0042 | -0.0065 ± 0.049 | 0.0095 ± 0.015 | -0.0815 ± 0.023 | 0.018 ± 0.0085 | 0.0145 ± 0.033 | 0.061 ± 0.028 |
| BT:sIL-6 | 0.078 ± 0.0014 | -0.049 ± 0.054 | 0.018 ± 0.013 | -0.007 ± 0.0042 | -0.0375 ± 0.00071 | 0.019 ± 0.064 | 0.055 ± 0.033 | -0.0415 ± 0.088 | 0.0615 ± 0.0035 | 0.028 ± 0.057 | 0.039 ± 0.045 | -0.0125 ± 0.073 | -0.0395 ± 0.043 | 0.0425 ± 0.033 | -0.077 ± 0.0099 | 0.02 ± 0.065 | 0.0175 ± 0.044 | -0.0375 ± 0.071 |
| BF4T:MMP-1 | 0.015 | 0.0095 ± 0.0078 | 0.0075 ± 0.0064 | 0.007 ± 0.027 | 0.0185 ± 0.032 | 0.0045 ± 0.022 | -0.01 ± 0.017 | 0.0075 ± 0.015 | 0.0045 ± 0.005 | 0.0035 ± 0.0035 | 0.009 ± 0.011 | 0.0005 ± 0.018 | -0.001 ± 0.0057 | -0.0015 ± 0.00071 | 0.008 ± 0.013 | -0.0005 ± 0.028 | 0.001 ± 0.03 | 0.039 ± 0.051 |
| LPS:CCL2/MCP-1 | -0.017 ± 0.025 | -0.0535 ± 0.012 | -0.02 ± 0.023 | -0.011 ± 0.021 | 0.0075 ± 0.036 | -0.011 ± 0.011 | -0.01 ± 0.011 | 0.0085 ± 0.025 | -0.0025 ± 0.005 | -0.009 ± 0.0014 | 0.0015 ± 0.032 | -0.026 ± 0.023 | -0.013 ± 0.013 | -0.013 ± 0.021 | -0.0045 ± 0.021 | -0.0025 ± 0.021 | -0.005 ± 0.0028 | 0.032 ± 0.011 |
| BF4T:CD106/VCAM-1 | -0.039 ± 0.0085 | -0.0615 ± 0.0092 | -0.0385 ± 0.022 | -0.042 ± 0.0071 | 0.006 ± 0.071 | -0.0185 ± 0.029 | 0.0035 ± 0.028 | 0.028 ± 0.072 | -0.0055 ± 0.0035 | -0.0215 ± 0.0035 | -0.0745 ± 0.019 | -0.0255 ± 0.0021 | -0.029 ± 0.0071 | -0.0615 ± 0.0064 | -0.11 ± 0.012 | -0.0015 ± 0.029 | 0.0115 ± 0.015 | 0.029 ± 0.0099 |
| BE3C:EGFR | -0.02 ± 0.0014 | -0.072 ± 0.0057 | 0.0115 ± 0.015 | 0.005 ± 0.021 | 0.0195 ± 0.077 | 0.002 ± 0.0042 | 0.005 ± 0.0099 | -0.0035 ± 0.0035 | 0.0095 ± 0.00071 | -0.0055 ± 0.0021 | 0.0285 ± 0.013 | 0.0115 ± 0.015 | 0.0195 ± 0.0078 | 0.0085 ± 0.019 | 0.009 ± 0.028 | -0.0065 ± 0.0078 | 0.0045 ± 0.0021 | -0.0005 ± 0.033 |
| LPS:CD69 | -0.134 ± 0.0028 | -0.226 ± 0.0042 | -0.004 ± 0.0071 | 0.003 ± 0.017 | 0.0165 ± 0.022 | -0.0005 ± 0.081 | 0.0145 ± 0.088 | 0.002 ± 0.075 | -0.0185 ± 0.0064 | -0.0025 ± 0.0035 | -0.032 ± 0.0099 | -0.007 ± 0.0014 | -0.015 ± 0.0071 | -0.015 | -0.019 ± 0.0057 | -0.0095 ± 0.0035 | -0.025 | -0.057 ± 0.013 |
| LPS:CD141/Thrombomodulin | 0.117 ± 0.0042 | 0.201 | 0.0085 ± 0.019 | 0.0165 ± 0.0092 | 0.003 ± 0.027 | -0.0035 ± 0.046 | -0.0295 ± 0.05 | 0.008 ± 0.054 | -0.0175 ± 0.0035 | -0.0095 ± 0.025 | -0.0105 ± 0.0092 | -0.0025 ± 0.013 | -0.016 ± 0.0085 | -0.014 ± 0.0099 | -0.032 ± 0.0014 | -0.0115 ± 0.03 | 0.002 ± 0.011 | -0.035 ± 0.0099 |
| SAg:CD38 | -0.027 ± 0.017 | -0.0955 ± 0.012 | -0.001 | 0.0015 ± 0.0021 | 0.0055 ± 0.0021 | -0.005 | -0.013 ± 0.0085 | -0.012 ± 0.0099 | -0.059 ± 0.15 | -0.01 ± 0.02 | 0.0005 ± 0.076 | 0.0245 ± 0.07 | -0.012 ± 0.0042 | 0.007 ± 0.0042 | -0.0125 ± 0.016 | -0.02 ± 0.0042 | -0.001 ± 0.0057 | -0.0225 ± 0.03 |
| SAg:CCL2/MCP-1 | -0.0055 ± 0.005 | -0.091 ± 0.023 | 0.0065 ± 0.0035 | -0.0145 ± 0.00071 | -0.0095 ± 0.0064 | -0.012 ± 0.0028 | -0.014 | 0.0175 ± 0.025 | 0.006 ± 0.018 | -0.0045 ± 0.021 | 0.005 ± 0.05 | 0.003 ± 0.0014 | -0.005 ± 0.0099 | -0.0175 ± 0.0035 | -0.006 ± 0.038 | -0.013 ± 0.0085 | 0.0215 ± 0.011 | 0.0215 ± 0.013 |
| SAg:SRB | -0.046 ± 0.0057 | -0.118 ± 0.024 | 0.007 ± 0.013 | 0.0005 ± 0.0064 | 0.0045 ± 0.00071 | -0.013 ± 0.03 | -0.005 ± 0.02 | -0.0075 ± 0.011 | -0.0075 ± 0.011 | -0.002 ± 0.0014 | -0.0045 ± 0.011 | 0.0045 ± 0.013 | 0.0065 ± 0.011 | 0.0015 ± 0.016 | -0.001 ± 0.0085 | -0.0155 ± 0.013 | 0.001 ± 0.011 | -0.0385 ± 0.016 |
| BE3C:CXCL8/IL-8 | -0.0825 ± 0.013 | -0.218 ± 0.056 | -0.0485 ± 0.0092 | -0.0355 ± 0.0078 | 0.007 ± 0.05 | 0.0155 ± 0.022 | 0.01 ± 0.014 | 0.0155 ± 0.005 | 0.011 ± 0.033 | 0.021 ± 0.028 | 0.052 ± 0.033 | 0.006 ± 0.0028 | 0.0285 ± 0.037 | 0.0605 ± 0.023 | 0.086 ± 0.024 | 0.033 ± 0.041 | 0.008 ± 0.042 | 0.0205 ± 0.1 |
| LPS:sTNF-alpha | -0.006 ± 0.0028 | -0.005 ± 0.0085 | -0.012 ± 0.057 | 0.0145 ± 0.063 | 0.0445 ± 0.059 | -0.0195 ± 0.012 | -0.0055 ± 0.0078 | -0.041 ± 0.034 | 0.0005 ± 0.022 | -0.008 ± 0.016 | 0.0075 ± 0.029 | -0.081 ± 0.05 | 0.003 ± 0.011 | -0.0065 ± 0.04 | -0.0135 ± 0.046 | -0.0265 ± 0.054 | -0.049 ± 0.0071 | -0.0215 ± 0.046 |
| SAg:CXCL8/IL-8 | 0.0095 ± 0.025 | -0.167 ± 0.03 | -0.006 ± 0.0085 | -0.0015 ± 0.0064 | 0.0155 ± 0.035 | -0.0025 ± 0.0092 | -0.005 ± 0.0085 | 0.0335 ± 0.028 | 0.0365 ± 0.016 | -0.004 ± 0.0071 | 0.002 ± 0.059 | -0.0085 ± 0.025 | -0.0585 ± 0.042 | -0.061 ± 0.016 | 0.007 ± 0.042 | 0.008 ± 0.011 | 0.0115 ± 0.0078 | 0.0715 ± 0.043 |
| BF4T:CXCL8/IL-8 | -0.015 ± 0.014 | -0.004 ± 0.0014 | -0.011 ± 0.023 | -0.0305 ± 0.0064 | -0.0025 ± 0.037 | 0.0005 ± 0.012 | 0.004 ± 0.0014 | 0.0095 ± 0.033 | 0.0175 ± 0.021 | -0.009 ± 0.058 | 0.016 ± 0.058 | 0.0165 ± 0.029 | 0.0065 ± 0.016 | 0.0295 ± 0.018 | 0.0605 ± 0.011 | 0.017 ± 0.028 | 0.0155 ± 0.013 | 0.0145 ± 0.036 |
| LPS:CD142/Tissue Factor | 0.139 ± 0.038 | 0.312 ± 0.037 | 0.034 ± 0.038 | 0.0025 ± 0.016 | 0.015 ± 0.061 | 0.0045 ± 0.037 | -0.0205 ± 0.00071 | -0.0045 ± 0.019 | -0.018 ± 0.038 | 0.0045 ± 0.0021 | 0.0045 ± 0.011 | -0.0245 ± 0.0064 | 0.0045 ± 0.018 | 0.0285 ± 0.016 | 0.038 ± 0.0085 | -0.0025 ± 0.005 | -0.007 ± 0.013 | 0.0245 ± 0.005 |
